Results as given in paper PMC6449294, “SNAPshots of the MCHR1: a Comparison Between the PET-Tracers [^18F]FE@SNAP and [^11C]SNAP-7941” (Molecular Imaging and Biology, 2018).

Assays:
native CHO-K1 cells = assay: Kinetic real-time cell-binding study on native CHO-K1 cells (negative control, unspecific uptake); format: cell-based, Chinese hamster; settings: result in words
Protocol: Kinetic real-time cell-binding studies were performed on adherent Chinese hamster ovary (CHO-K1) cells (negative control) and CHO-K1 cells stably expressing the human MCHR1 or MCHR2 (PerkinElmer®; Waltham, MA, USA) with [^11C]SNAP-7941 and [^18F]FE@SNAP as previously reported. The cells were cultured in Ham’s F-12 medium (Gibco®, Life Technologies) with additives (1 % penicillin-streptomycin-glutamine (PSG), 10 % fetal bovine serum (FBS), and 300-μg/m Geneticin (G-418)) and incubated in a humidified 5 % CO2 atmosphere at 37 °C. For the preparation of the binding experiment, approximately 10^6 cells were seeded as a monolayer on the bottom of a tilted cell culture dish (100 mm × 20 mm, CELLSTAR®, Greiner Bio-One) and incubated with 2-ml medium for 24 h to avoid a spreading of the cells over the whole Petri dish. In the next step, the medium was discarded and the Petri dish was placed in a horizontal position with 10-ml medium for additional 24 h. […] Unspecific radiotracer uptake was determined with native CHO-K1 cells. […] Association-time curves were monitored in real-time until the binding equilibrium was achieved. The observed rate constant of the association reaction (kobs) was determined using non-linear regression curve fitting algorithms implemented in GraphPad Prism 6.0 (GraphPad Software, Inc., San Diego, CA, USA), as previously reported. […]

MCHR1 = target: T1, MCHR1 (Rattus norvegicus, UniProt P97639); assay: Small animal PET displacement study with (±)-SNAP-7941 (time-activity curves); format: in vivo; settings: rats; for change of brown adipose tissue (BAT) TAC after administration of (±)-SNAP-7941 / change of lung TAC after displacement: 15 mg/kg (±)-SNAP-7941; for displacement in whole brain (TAC): 15 mg/kg (±)-SNAP-7941 i.v. 15 or 20 min after tracer
T1 construct: from tissue; host or cells: living Sprague-Dawley rats (PET) and their organs after sacrifice
T1 sequence (P97639 whole entry): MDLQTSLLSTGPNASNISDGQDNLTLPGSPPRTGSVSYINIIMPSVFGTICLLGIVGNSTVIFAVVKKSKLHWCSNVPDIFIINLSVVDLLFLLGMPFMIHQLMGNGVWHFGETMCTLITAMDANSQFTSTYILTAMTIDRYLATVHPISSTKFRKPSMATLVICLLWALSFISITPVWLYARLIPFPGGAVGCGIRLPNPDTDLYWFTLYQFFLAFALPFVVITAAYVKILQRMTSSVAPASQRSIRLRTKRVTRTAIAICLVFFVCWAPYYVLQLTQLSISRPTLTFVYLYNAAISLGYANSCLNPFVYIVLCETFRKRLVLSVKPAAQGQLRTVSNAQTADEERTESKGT
Protocol: Ten-week-old male rats (412 ± 58 g, Sprague-Dawley, HIM:OFA, n = 30) and 12-week-old male mice (24 ± 6 g, BALB/cAnNRj, n = 7) were purchased from the Division of Laboratory Animal Science and Genetics, Himberg, Austria. Animals were kept under conventional housing conditions (22 ± 1 °C; 40–70 % humidity) with food and water supply ad libitum and 12-h day/night cycle. All animals were treated according to the European Union rules on animal care and respective animal experiments were approved by the Austrian Ministry of Sciences, Research and Economy (BMWFW-66.009/0029-WF/V/3b/20159). For in vivo imaging, animals were anesthetized using 1.5–2 % isoflurane mixed with oxygen (1.5–2 l/min) to avoid movement during the examination. Anesthesia as well as vital parameters were monitored during the time interval of PET acquisition. Radioligands and non-labeled compounds were administered intravenously via the lateral tail vein.
Anesthetized rats and mice were immobilized in a multimodal animal carrier unit (MACU; medres®—medical research GmbH, Cologne, Germany). The body temperature was preserved at 37 °C throughout the whole experiment. Rats received either [^11C]SNAP-7941 or [^18F]FE@SNAP, followed by an injection of (±)-SNAP-7941 (15-mg/kg body weight; displacement study; n = 4 for each radiotracer) or the respective solvent serving as the vehicle (baseline condition; n = 4 for each radiotracer). The MCHR1 antagonist, (±)-SNAP-7941, and the vehicle were administered either 15 ([^11C]SNAP-7941) or 20 min ([^18F]FE@SNAP) after the radiotracer application via the lateral tail vein. To investigate a potential binding to the P-glycoprotein (P-gp) and/or breast cancer resistance protein (BCRP) brain efflux transporter system, rats as well as mice were pretreated either with the P-gp/BCRP inhibitor TQD (15 mg/kg body weight; P-gp/BCRP inhibition group; rats: n = 4 for each radiotracer; mice: n = 4 for [^18F]FE@SNAP) or the respective solvent (baseline condition; rats: n = 3 for each radiotracer; mice: n = 3 for [^18F]FE@SNAP)). Mice received the P-gp/BCRP inhibitor 30 min and rats 60 min before the radiotracer application. Experiments were initiated with a 7-min cone beam attenuation CT (CBCT) of the brain (full rotation, 360 projections; binning 4 × 4; 80 kV; 500 μA; 200-ms exposure time) using a small animal cone beam computed tomography (CBCT) scanner (Siemens Inveon microSPECT/CT, Siemens Medical Solutions, Knoxville, USA). Subsequently, the animals were positioned in the Siemens Inveon microPET scanner (Siemens Medical Solution, Knoxville, USA). The radiotracers were injected intravenously, and dynamic PET imaging was performed for 45 min (rats) in case of [^11C]SNAP-7941 (77.46 ± 5.41 MBq; molar activity 76.66 ± 23.58 GBq/μmol; radiochemical purity > 99 %) and 30 min (mice)—60 min (rats) for [^18F]FE@SNAP (47.08 ± 6.24 MBq; molar activity 22.18 ± 9.72 GBq/μmol; radiochemical purity > 90 %).
Image reconstruction of the CT raw data was performed with a Feldkamp algorithm using a ramp filter followed by standard rat beam-hardening correction and noise reduction (matrix size 1024 × 1024; effective pixel size: 97.56 μm). All CT image data was calibrated to Hounsfield units (HU). PET list mode data were sorted into three-dimensional sinograms according to the following frame sequences, [^11C]SNAP-7941: 1 × 3 s, 3 × 2 s, 1 × 6 s, 1 × 15 s, 1 × 35 s, 1 × 145 s, 1 × 270 s, 1 × 285 s, 1 × 165 s, 3 × 30 s, 1 × 120 s, 1 × 240 s, 1 × 420 s, 1 × 900 s and for [^18F]FE@SNAP: 1 × 2 s, 1 × 3 s, 1 × 5 s, 3 × 10 s, 1 × 20 s, 1 × 60 s, 1 × 120 s, 4 × 240 s, 4 × 600 s. PET image reconstruction were performed using an OSEM 3D/OP-MAP with scatter correction and a ramp filter (matrix size 128 × 128). Image data were normalized and corrected for random events, dead time, and radioactive decay. A calibration factor was applied to convert the activity information into absolute concentration units. […]

Compound	accumulation on native CHO-K1 cells (native CHO-K1 cells)	change of brown adipose tissue (BAT) TAC after administration of (±)-SNAP-7941 (MCHR1)	change of lung TAC after displacement (MCHR1)	displacement in whole brain (TAC) (MCHR1)
COCC1=C(C(=O)O[11CH3])C(c2ccc(F)c(F)c2)N(C(=O)NCCCN2CCC(c3cccc(NC(C)=O)c3)CC2)C(=O)N1 (centres unmarked) [[^11C]SNAP-7941]	negligible accumulation	increased uptake	drop in the TAC	clear displacement
COCC1=C(C(=O)OCC[18F])C(c2ccc(F)c(F)c2)N(C(=O)NCCCN2CCC(c3cccc(NC(C)=O)c3)CC2)C(=O)N1 (centres unmarked) [[^18F]FE@SNAP]	negligible accumulation	increased uptake	drop in the TAC	displacement could not be detected
